Active and inactive are the calls of the source. The calls are words filed in the database; no cut-off is given here. Some results are limits rather than exact numbers.

As usually defined, the IC50 is the concentration needed to halve the response being measured. Read a high IC50 as lower potency.

For one assay, the system named is A549. The assay can be described thus: Cytotoxicity against human A549 cells by MTT assay. It is filed as functional, cell-based. A general note: Tetrazolium dyes change colour on reduction, which living cells bring about.
The subject of another assay is A2780. The assay can be described thus: Cytotoxicity against human A2780 cells by MTT assay. It is filed as functional, cell-based.
For the next assay, the species on record is Homo sapiens. The assay can be described thus: Inhibition of NF-kappaB (unknown origin) expressed in LPS-stimulated Raw 264.7 cells pretreated for 2 hrs measured after 4 hrs of LPS-challenge by luciferase reporter assay. It is filed as cell-based. (Reporter assays use an easily measured gene product as a stand-in for the process of interest.)
Assay [1] has as its target T1, DNA topoisomerase 1 (Homo sapiens) (UniProt P11387).
T1 sequence (whole entry): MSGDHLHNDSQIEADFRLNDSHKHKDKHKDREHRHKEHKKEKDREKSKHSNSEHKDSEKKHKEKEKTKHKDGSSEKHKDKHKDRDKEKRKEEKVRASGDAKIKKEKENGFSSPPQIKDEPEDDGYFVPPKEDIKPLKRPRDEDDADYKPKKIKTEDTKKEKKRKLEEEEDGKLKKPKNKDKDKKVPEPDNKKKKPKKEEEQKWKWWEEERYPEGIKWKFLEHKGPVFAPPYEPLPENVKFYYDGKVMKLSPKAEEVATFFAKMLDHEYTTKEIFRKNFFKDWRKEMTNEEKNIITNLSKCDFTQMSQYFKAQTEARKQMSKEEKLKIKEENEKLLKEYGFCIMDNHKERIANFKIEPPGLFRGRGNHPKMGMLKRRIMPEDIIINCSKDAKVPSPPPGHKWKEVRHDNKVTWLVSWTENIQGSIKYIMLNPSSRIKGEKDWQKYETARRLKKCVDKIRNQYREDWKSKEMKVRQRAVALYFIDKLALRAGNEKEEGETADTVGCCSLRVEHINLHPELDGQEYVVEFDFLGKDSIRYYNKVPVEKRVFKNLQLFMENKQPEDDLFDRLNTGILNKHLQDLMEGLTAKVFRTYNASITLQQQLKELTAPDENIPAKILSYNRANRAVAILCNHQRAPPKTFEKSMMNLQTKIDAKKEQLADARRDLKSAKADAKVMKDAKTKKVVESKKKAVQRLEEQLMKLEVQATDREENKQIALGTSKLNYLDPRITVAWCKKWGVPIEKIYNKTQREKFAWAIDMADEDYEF
Briefly: Binding affinity to topoisomerase 1 (unknown origin).

The next assay deals with HCT-8. Briefly: Cytotoxicity against human HCT8 cells by MTT assay. It is filed as functional, cell-based.
A further assay deals with BGC-823. Briefly: Cytotoxicity against human BGC823 cells by MTT assay. It is filed as functional, cell-based.
For the next assay, the system named is Bel-7402. Briefly: Cytotoxicity against human Bel7402 cells by MTT assay. It is filed as functional, cell-based.
Assay [2] deals with Protein kinase C alpha type (Homo sapiens) (UniProt P17252). The assay can be described thus: Binding affinity to PKC alpha (unknown origin).

With `CC(C)[C@H]1C(=O)N[C@@H](C[C@]23C[C@H]4C(=C[C@H]2N(C=O)c2ccccc23)CC[C@H]2C(C)(C)CCC[C@]42C)C(=O)N1C` (mixture of isomers) [INDOTERTINE B], the IC50 is 4.88 µM in the assay on A549; above 10 µM with A2780; 6.96 µM with HCT-8; above 10 µM in the assay with BGC-823; above 10 µM with Bel-7402. Also, the inhibition result in the assay filed under Homo sapiens is “inactive”. For the same compound, the result in assay [1] and in assay [2] was inactive.

For the compound `C=C1CC[C@H]2C(C)(C)CCC[C@]2(C)[C@H]1C[C@@]12C[C@H]3C(=O)N4CCC[C@H]4C(=O)N3[C@@H]1Nc1ccccc12` [DRIMENTINE C], the IC50 in the assay on A549, in the assay with A2780, in the assay with HCT-8, in the assay with BGC-823 and in the assay with Bel-7402 was above 10 µM throughout. Further, the inhibition result in the assay filed under Homo sapiens is “inactive”. For the same compound, the result in assay [1] and in assay [2] was inactive.

Consider `C=C1CC[C@H]2C(C)(C)CCC[C@]2(C)[C@H]1C[C@@]12C[C@H]3C(=O)N(C)[C@@H](C(C)C)C(=O)N3[C@@H]1N(C=O)c1ccccc12` [DRIMENTINE H], for which the IC50 in the assay on A549, in the assay on A2780, with HCT-8, in the assay on BGC-823 and with Bel-7402 was above 10 µM throughout. The inhibition entry in the assay listed under Homo sapiens is “inactive”. The result in assay [1] and in assay [2] was inactive.

Take `CC(=O)O[C@H]1C(=O)[C@@]2(C)[C@H]([C@H](OC(=O)c3ccccc3)[C@]3(O)C[C@H](OC(=O)[C@H](O)[C@@H](NC(=O)c4ccccc4)c4ccccc4)C(C)=C1C3(C)C)[C@]1(OC(C)=O)CO[C@@H]1C[C@@H]2O` [PACLITAXEL]: the results for the IC50 with A2780, in the assay on BGC-823 and with Bel-7402 were below 0.001 µM, below 0.001 µM and 0.006 µM, respectively.

These data come from ChEMBL document CHEMBL2331155, “Polycyclic hybrid isoprenoids from a reed rhizosphere soil derived Streptomyces sp. CHQ-64” (J Nat Prod, 2013).
